Source: article PMC7343282, “Tissue Distribution of Several Series of Cationic Surfactants in Rainbow Trout (Oncorhynchus mykiss) Following Exposure via Water” (Environmental Science & Technology, 2020)

What was measured:
[1] = Table S2; cited from earlier work
[2] = tested on: rainbow trout (Oncorhynchus mykiss); test: Tissue concentrations in rainbow trout after 7 d exposure via water (two mixtures); type: in vivo
Protocol: (§1) The study was conducted with rainbow trout (Oncorhynchus mykiss) weighing between 98 and 165 g. The fish were purchased from Nordic trout Sweden AB and held in the aquaria facility prior to the experiment in February 2018. Ethical approval for the experiments was obtained from Stockholms djurförsöksetiska nämnd (decision 9967-2017). The experiments were conducted in 300 L fiberglass aquaria with a water renewal rate of 1.3 L min^–1 (MIX 1) and 1.45 L min^–1 (MIX 2). The water temperature was 10 °C and the pH 7.5. The water hardness was estimated to be 1.1 mM Ca^2+ based on information from the water supplier. The aquaria water was circulated through a filter of polyester wool at 800–1200 L h^–1 with an Eheim 2273 Pro 4+ pump. The outflow from the filter pump was placed above the water surface, providing for aeration. The lighting was dim and programmed on a 12 h light/12 h dark cycle. The fish were fed fish food pellets supplied by the fish farm at 1.0% of their body weight per day.
(§2) A solution of the test chemical mixture in methanol was infused continuously (3.5 and 3.8 μL min^–1 for MIX 1 and MIX 2, respectively) into the water inflow using a syringe pump. The intended concentrations of the chemicals in water ranged from 2.5 to 50 μg L^–1 (Table 1). They were selected with the help of modeled estimates of the BCF that were based on reported and extrapolated membrane water partition coefficients[7] and biotransformation rate constants predicted with quantitative structure activity relationships (QSARs)[24],[25] to parameterize the BIONIC model.[26] Based on these estimates, we selected an exposure concentration which would result in concentrations in fish that were clearly above the limit of quantification (LOQ) of the analytical method, while trying to keep the quantifiable exposure concentration as low as possible to minimize the risk of toxic effects and micelle formation (see comparison of intended concentrations with available toxicological data in Table S4).
(§3) The surface of the fish posterior of the gills was rinsed with 100% methanol to remove test chemical residues adsorbed to the outer surface of the skin and absorbed in the skin mucus. […] The fish were dissected and the liver, the kidney, the gills, and the remaining contents of the abdominal cavity were taken and weighed. Skin and muscle samples were prepared from the upper dorsal region on semi-frozen fish after the methanol rinse had removed the mucus. The main part of the subcutaneous fat tissue was included in the muscle samples rather than in the skin samples. All samples were stored frozen at −20 °C until further analysis.
(§4) For 6 fish from each aquarium and 3 control fish, samples of muscle, skin, liver, and gills were homogenized in a bullet blender (muscle and liver) (MiniG, SPEXsamplePrep) or in a cryo-mill (skin and gill) (Mixer mill cryomill, Retsch GmbH). A sub-sample of 0.5–1.2 g of the homogenate was extracted twice in methanol (4 mL, 50 °C, ultra-sound, 60 min), employing centrifugation at 4000 rpm for phase separation. Further information on the extraction efficiency of this method can be found in the Supporting Information (Table S5 and accompanying text). Isotope labeled standards of Q10 (D21), Q14 (D29), and P16 (D33) were added to a portion of the extract corresponding to 12–75 mg of the sample. The extract volume was adjusted to 3 mL with methanol and then cleaned up on a weak cationic exchange SPE column (WCX, 60 mg, 30 μm particle size, waters). Solvent elution was performed by gravity flow. The column was conditioned with 2 mL of methanol, followed by 2 mL of Milli-Q water adjusted to pH 7 with ammonium hydroxide to activate the ion exchange. The sample extract was loaded onto the column, and it was subsequently rinsed with 20 mL of methanol.

[3] = as above; type: in vivo, Oncorhynchus mykiss; conditions: rainbow trout (Oncorhynchus mykiss), in vivo
Protocol: as §1, §2, §3, §4

[4] = Membrane-water partition/distribution coefficient; conditions: extrapolated from data of Timmer and Droge (2017)
[5] = Tissue-blood distribution coefficients and volume of distribution; conditions: whole blood, pH 7.5, Estimated volume of distribution Vd, residues in muscle, liver and blood only
Protocol: Blood is the transport medium for contaminants in fish, and the tissue distribution is governed by tissue–blood distribution coefficients. […] Muscle–blood and liver–blood distribution coefficients (DMus–B and DL–B) were calculated as the quotients of the concentrations in the respective tissues and blood. This approach implies that there was an internal test chemical steady state in the fish.
The experimental data also allow estimation of the volume of distribution (Vd), an important parameter for extrapolating in vitro measures of e.g. metabolism to in vivo. In the context of quantitative in vitro–in vivo extrapolation for fish, Vd is defined as the quotient of the concentration in fish and the concentration in blood and describes the equivalent volume of blood that would contain the same amount of the chemical as 1 kg of fish.[40]Vd was estimated using the residues that had been clearly taken up systemically (i.e., those in muscle, liver and blood).

[6] = tested on: rainbow trout (Oncorhynchus mykiss); test: Apparent bioconcentration factor at end of 7-day exposure; type: in vivo; conditions: end of 7-day exposure, body burden including mucus
Protocol: Apparent BCFs (BCFapp) at the end of the 7-day exposure were calculated by dividing the surfactant body burden (including mucus) by the fish mass, and dividing this by the average measured concentration in water samples taken during the exposure phase. The BCFapp values ranged from 0.1 to 1260 (Table S18). Given the short exposure period, it is possible that the fish in this study had not approached steady state, in particular with respect to the distribution between water and internal tissues and between water and skin, and that the steady-state BCFs are higher. […] We note that some improvements in the methodology would be helpful, particularly with respect to the stability of the aqueous exposure concentration of the longest chain surfactants. Working with mixtures of analogue cationic surfactants allowed for consistent evaluation of differences in accumulation trends due to structural features.

[7] = rainbow trout (Oncorhynchus mykiss), in vivo, 7 d
[8] = rainbow trout (Oncorhynchus mykiss), in vivo, 7 d, pH 7.5
[9] = mean of exposed fish, Table S13
[10] = mean of exposed fish, Table S14
[11] = wet weight, mean of six fish (RSD %), 7 d exposure, Q10, Q14 below LOQ

CCCCCCCCCCCCCCCCN [P16, hexadecylamine]
pKa [1]: 10.5
Concentration in gills [2, 7]: 8700 (15) ng g^–1
Concentration in liver [2, 7]: 5500 (10) ng g^–1
Concentration in skin [2, 7]: 420 (25) ng g^–1
Concentration in blood [2, 8]: 130 (19) ng g^–1
Concentration in muscle [2, 8]: 111 (22) ng g^–1
Concentration in skin, per surface area [2, 8]: 30 ng cm-2
concentration at 7 d ([3]; Concentration in skin): 415 ng/g
concentration at 7 d ([3]; pH 7.5, Concentration in blood): 119 ng/g
concentration at 7 d ([3]; pH 7.5, Concentration in gills): 7960 ng/g
concentration at 7 d ([3]; pH 7.5, Concentration in liver): 5450 ng/g
concentration at 7 d ([3]; pH 7.5, Concentration in muscle): 90 ng/g
concentration at 7 d ([3]; pH 7.5, Concentration in skin): 364 ng/g
Log KMW,C (membrane-water partition coefficient of the charged form), extrapolated [4]: 7.90
Vd at 7 d ([5]; Mean): 1.13 L/kg
Vd at 7 d ([5]; exposed fish #1): 0.99 L/kg
Vd at 7 d ([5]; exposed fish #2): 1.2 L/kg
Vd at 7 d ([5]; exposed fish #3): 1.1 L/kg
Vd at 7 d ([5]; exposed fish #4): 1.63 L/kg
Vd at 7 d ([5]; exposed fish #5): 1.15 L/kg
Vd at 7 d ([5]; exposed fish #6): 0.73 L/kg

CCCCCCCCCCCCCN(C)C [T13, N,N-dimethyltridecylamine]
pKa [1]: 9.5
Apparent bioconcentration factor (BCFapp) [6]: 510 L kg-1 wet weight
Concentration in blood ([2]; exposed fish #1): 890 ng/g
Concentration in gills ([2]; exposed fish #1): 9077 ng/g
Concentration in gills, surface area-normalized ([2]; exposed fish #1): 140 ng cm-2
Concentration in liver ([2]; exposed fish #1): 6570 ng/g
Concentration in mucus ([2]; exposed fish #1): 57 ng cm-2
Concentration in muscle ([2]; exposed fish #1): 580 ng/g
Concentration in skin ([2]; exposed fish #1): 1879 ng/g
Concentration in skin, per surface area ([2]; exposed fish #1): 89 ng cm-2
Concentration in blood ([2]; exposed fish #2): 816 ng/g
Concentration in gills ([2]; exposed fish #2): 9391 ng/g
Concentration in gills, surface area-normalized ([2]; exposed fish #2): 150 ng cm-2
Concentration in liver ([2]; exposed fish #2): 8202 ng/g
Concentration in mucus ([2]; exposed fish #2): 59 ng cm-2
Concentration in muscle ([2]; exposed fish #2): 593 ng/g
Concentration in skin ([2]; exposed fish #2): 1877 ng/g
Concentration in skin, per surface area ([2]; exposed fish #2): 160 ng cm-2
Concentration in blood ([2]; exposed fish #3): 1018 ng/g
Concentration in liver ([2]; exposed fish #3): 13696 ng/g
Concentration in mucus ([2]; exposed fish #3): 52 ng cm-2
Concentration in muscle ([2]; exposed fish #3): 601 ng/g
Concentration in skin ([2]; exposed fish #3): 2115 ng/g
Concentration in skin, per surface area ([2]; exposed fish #3): 150 ng cm-2
Concentration in blood ([2]; exposed fish #4): 858 ng/g
Concentration in gills ([2]; exposed fish #4): 9586 ng/g
Concentration in gills, surface area-normalized ([2]; exposed fish #4): 178 ng cm-2
Concentration in liver ([2]; exposed fish #4): 20532 ng/g
Concentration in mucus ([2]; exposed fish #4): 63 ng cm-2
Concentration in muscle ([2]; exposed fish #4): 882 ng/g
Concentration in skin ([2]; exposed fish #4): 2718 ng/g
Concentration in skin, per surface area ([2]; exposed fish #4): 154 ng cm-2
Concentration in blood ([2]; exposed fish #5): 795 ng/g
Concentration in gills ([2]; exposed fish #5): 11785 ng/g
Concentration in gills, surface area-normalized ([2]; exposed fish #5): 209 ng cm-2
Concentration in liver ([2]; exposed fish #5): 12097 ng/g
Concentration in mucus ([2]; exposed fish #5): 70 ng cm-2
Concentration in muscle ([2]; exposed fish #5): 767 ng/g
Concentration in skin ([2]; exposed fish #5): 1738 ng/g
Concentration in skin, per surface area ([2]; exposed fish #5): 154 ng cm-2
Concentration in blood ([2]; exposed fish #6): 1205 ng/g
Concentration in gills ([2]; exposed fish #6): 11130 ng/g
Concentration in gills, surface area-normalized ([2]; exposed fish #6): 148 ng cm-2
Concentration in liver ([2]; exposed fish #6): 9499 ng/g
Concentration in mucus ([2]; exposed fish #6): 70 ng cm-2
Concentration in muscle ([2]; exposed fish #6): 606 ng/g
Concentration in skin ([2]; exposed fish #6): 2209 ng/g
Concentration in skin, per surface area ([2]; exposed fish #6): 162 ng cm-2
Concentration in blood ([2]; mean of exposed fish, Table S10): 930 ng/g
Concentration in muscle ([2]; mean of exposed fish, Table S11): 672 ng/g
Concentration in liver ([2]; mean of exposed fish, Table S12): 11766 ng/g
Concentration in gills [2, 9]: 10194 ng/g
Concentration in gills, surface area-normalized [2, 9]: 165 ng cm-2
Concentration in skin [2, 10]: 2089 ng/g
Concentration in skin, per surface area [2, 10]: 145 ng cm-2
Concentration in mucus ([2]; mean of exposed fish, Table S15): 62 ng cm-2
Concentration in mucus ([2]; methanol rinse normalized to fish surface area, mean of six fish (RSD %)): 62 (9) ng cm^–2
Concentration in blood ([2]; wet weight, mean of six fish (RSD % in brackets), 7 d exposure, Q10 below LOQ): 930 (17) ng g^–1
Concentration in muscle [2, 11]: 670 (19) ng g^–1
Concentration in skin [2, 11]: 2100 (17) ng g^–1
Log KMW,C (membrane-water partition coefficient of the charged form), extrapolated [4]: 5.88
